Experimental data as given in the supplement of paper PMC10307832.

Each cell line was assayed with CC1=CC(=CC=C1)NC2=NC(=CS2)C3=CC=NC=C3 + Nc1nc2[nH]cc(CCc3ccc(C(=O)N[C@@H](CCC(=O)O)C(=O)O)cc3)c2c(=O)[nH]1 [Pemetrexed] (partner 0.2 µM) (assay: relative viability (nuclei count vs DMSO), 5 days (fraction); higher = more cells survive). Conditions: first compound 0.08 µM.
Summary of the method: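 Relative viability equals treated-well nuclei counts divided by vehicle-well nuclei counts. Counts came from 4× images of lung cancer cell lines grown in 1536-well plates for 5 days after pin-tool dosing on the day after seeding. Dosing used one drug alone or a fixed anchor-drug dose plus five library-drug doses (not always all listed) in √10 steps, and values are medians of duplicate plates.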

Cell Line | relative viability
NCI-H522 | 0.966
NCI-H838 | 0.26
NCI-H1651 | 0.55
NCI-H1734 | 0.374
NCI-H2009 | 0.938
LU99A | 0.141
PC-14 | 0.144
LCLC-103H | 0.415
NCI-H596 | 0.494
NCI-H2228 | 0.38
EMC-BAC-2 | 0.393
NCI-H2087 | 0.637
HCC-366 | 0.154
NCI-H647 | 0.181
NCI-H2126 | 0.596
NCI-H2342 | 0.615

Cell Line | relative viability
NCI-H1793 | 0.603
H3255 | 0.585
COR-L23 | 0.184
COR-L 105 | 1.01
LOU-NH91 | 0.38
ChaGo-K-1 | 0.259
NCI-H358 | 0.153
HCC-44 | 0.537
SW 900 | 0.507
NCI-H1648 | 0.639
NCI-H1395 | 0.757
NCI-H1563 | 0.744
NCI-H1792 | 0.453
NCI-H1944 | 0.543
NCI-H2170 | 0.229
SK-MES-1 | 0.757

Same assay, conditions: first compound 0.253 µM

Cell Line | relative viability
NCI-H522 | 1.12
NCI-H838 | 0.228
NCI-H1651 | 0.604
NCI-H1734 | 0.421
NCI-H2009 | 1.05
LU99A | 0.199
PC-14 | 0.131
LCLC-103H | 0.434
NCI-H596 | 0.472
NCI-H2228 | 0.346
EMC-BAC-2 | 0.402
NCI-H2087 | 0.623
HCC-366 | 0.123
NCI-H647 | 0.154
LK-2 | 0.315
NCI-H2126 | 0.599

Cell Line | relative viability
NCI-H2342 | 0.796
NCI-H1793 | 0.779
H3255 | 0.546
COR-L23 | 0.194
COR-L 105 | 0.903
LOU-NH91 | 0.391
ChaGo-K-1 | 0.272
NCI-H358 | 0.19
HCC-44 | 0.55
SW 900 | 0.4
NCI-H1648 | 0.626
NCI-H1563 | 0.739
NCI-H1792 | 0.682
NCI-H1944 | 0.6
NCI-H2170 | 0.286
SK-MES-1 | 0.762

Same assay, conditions: first compound 0.8 µM

Cell Line | relative viability
NCI-H522 | 1.17
NCI-H838 | 0.263
NCI-H1651 | 0.648
NCI-H1734 | 0.409
NCI-H2009 | 1
LU99A | 0.171
PC-14 | 0.141
LCLC-103H | 0.45
NCI-H596 | 0.446
NCI-H2228 | 0.323
EMC-BAC-2 | 0.413
NCI-H2087 | 0.591
HCC-366 | 0.121
NCI-H647 | 0.147
LK-2 | 0.263
NCI-H2126 | 0.657
NCI-H2342 | 0.765

Cell Line | relative viability
NCI-H1793 | 0.808
H3255 | 0.568
COR-L23 | 0.201
COR-L 105 | 0.898
LOU-NH91 | 0.348
ChaGo-K-1 | 0.249
NCI-H358 | 0.175
HCC-44 | 0.586
SW 900 | 0.473
NCI-H1648 | 0.749
NCI-H1395 | 0.921
NCI-H1563 | 0.717
NCI-H1792 | 0.651
NCI-H1944 | 0.636
NCI-H2170 | 0.27
SK-MES-1 | 0.787

Same assay, conditions: first compound 2.53 µM

Cell Line | relative viability
NCI-H522 | 0.995
NCI-H838 | 0.257
NCI-H1651 | 0.498
NCI-H1734 | 0.44
NCI-H2009 | 1
LU99A | 0.178
PC-14 | 0.134
LCLC-103H | 0.46
NCI-H596 | 0.454
NCI-H2228 | 0.343
EMC-BAC-2 | 0.432
NCI-H2087 | 0.63
HCC-366 | 0.113
NCI-H647 | 0.167
LK-2 | 0.135
NCI-H2126 | 0.599
NCI-H2342 | 0.789

Cell Line | relative viability
NCI-H1793 | 0.604
H3255 | 0.54
COR-L23 | 0.189
COR-L 105 | 1.02
LOU-NH91 | 0.366
ChaGo-K-1 | 0.266
NCI-H358 | 0.176
HCC-44 | 0.663
SW 900 | 0.42
NCI-H1648 | 0.673
NCI-H1395 | 0.596
NCI-H1563 | 0.742
NCI-H1792 | 0.67
NCI-H1944 | 0.654
NCI-H2170 | 0.26
SK-MES-1 | 0.822

Same assay, conditions: first compound 8 µM

Cell Line | relative viability
NCI-H522 | 1.19
NCI-H838 | 0.241
NCI-H1651 | 0.598
NCI-H1734 | 0.371
NCI-H2009 | 0.914
LU99A | 0.182
PC-14 | 0.136
LCLC-103H | 0.488
NCI-H596 | 0.463
NCI-H2228 | 0.208
EMC-BAC-2 | 0.393
NCI-H2087 | 0.711
HCC-366 | 0.0949
NCI-H647 | 0.151
LK-2 | 0.347
NCI-H2126 | 0.719
NCI-H2342 | 0.759
NCI-H1793 | 0.957
H3255 | 0.54
COR-L23 | 0.184
COR-L 105 | 0.797
LOU-NH91 | 0.366
ChaGo-K-1 | 0.252
NCI-H358 | 0.166
HCC-44 | 0.607
SW 900 | 0.366
NCI-H1648 | 0.633
NCI-H1395 | 0.728
NCI-H1563 | 0.881
